In patent US20230382925A1, “MODULATORS OF CYSTIC FIBROSIS TRANSMEMBRANE CONDUCTANCE REGULATOR” (VERTEX PHARMACEUTICALS INCORPORATED, priority 2020, published 2023):
Where two headings read alike, the source gives them in different places.

Target: CFTR (Homo sapiens, UniProt P13569)
Experiment: Membrane Potential Dye, Enteroid Assay B
Format: cell-based
Outline: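 Activity given as % of a triple-combination reference (1 μM and 3 μM correctors, 300 nM acute potentiator). Enteroids were preincubated 18-24 h with compound; chloride efflux then measured 15 min by methyl oxonol fluorescence after forskolin/IBMX/Compound III stimulation in chloride-free buffer containing CaCCinh-A01 and Chicago Sky Blue.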

[1] = Table 10, read-out: Ent. B EC50

Sequence of CFTR (P13569 with tags, fused parts or gaps DEL508-508): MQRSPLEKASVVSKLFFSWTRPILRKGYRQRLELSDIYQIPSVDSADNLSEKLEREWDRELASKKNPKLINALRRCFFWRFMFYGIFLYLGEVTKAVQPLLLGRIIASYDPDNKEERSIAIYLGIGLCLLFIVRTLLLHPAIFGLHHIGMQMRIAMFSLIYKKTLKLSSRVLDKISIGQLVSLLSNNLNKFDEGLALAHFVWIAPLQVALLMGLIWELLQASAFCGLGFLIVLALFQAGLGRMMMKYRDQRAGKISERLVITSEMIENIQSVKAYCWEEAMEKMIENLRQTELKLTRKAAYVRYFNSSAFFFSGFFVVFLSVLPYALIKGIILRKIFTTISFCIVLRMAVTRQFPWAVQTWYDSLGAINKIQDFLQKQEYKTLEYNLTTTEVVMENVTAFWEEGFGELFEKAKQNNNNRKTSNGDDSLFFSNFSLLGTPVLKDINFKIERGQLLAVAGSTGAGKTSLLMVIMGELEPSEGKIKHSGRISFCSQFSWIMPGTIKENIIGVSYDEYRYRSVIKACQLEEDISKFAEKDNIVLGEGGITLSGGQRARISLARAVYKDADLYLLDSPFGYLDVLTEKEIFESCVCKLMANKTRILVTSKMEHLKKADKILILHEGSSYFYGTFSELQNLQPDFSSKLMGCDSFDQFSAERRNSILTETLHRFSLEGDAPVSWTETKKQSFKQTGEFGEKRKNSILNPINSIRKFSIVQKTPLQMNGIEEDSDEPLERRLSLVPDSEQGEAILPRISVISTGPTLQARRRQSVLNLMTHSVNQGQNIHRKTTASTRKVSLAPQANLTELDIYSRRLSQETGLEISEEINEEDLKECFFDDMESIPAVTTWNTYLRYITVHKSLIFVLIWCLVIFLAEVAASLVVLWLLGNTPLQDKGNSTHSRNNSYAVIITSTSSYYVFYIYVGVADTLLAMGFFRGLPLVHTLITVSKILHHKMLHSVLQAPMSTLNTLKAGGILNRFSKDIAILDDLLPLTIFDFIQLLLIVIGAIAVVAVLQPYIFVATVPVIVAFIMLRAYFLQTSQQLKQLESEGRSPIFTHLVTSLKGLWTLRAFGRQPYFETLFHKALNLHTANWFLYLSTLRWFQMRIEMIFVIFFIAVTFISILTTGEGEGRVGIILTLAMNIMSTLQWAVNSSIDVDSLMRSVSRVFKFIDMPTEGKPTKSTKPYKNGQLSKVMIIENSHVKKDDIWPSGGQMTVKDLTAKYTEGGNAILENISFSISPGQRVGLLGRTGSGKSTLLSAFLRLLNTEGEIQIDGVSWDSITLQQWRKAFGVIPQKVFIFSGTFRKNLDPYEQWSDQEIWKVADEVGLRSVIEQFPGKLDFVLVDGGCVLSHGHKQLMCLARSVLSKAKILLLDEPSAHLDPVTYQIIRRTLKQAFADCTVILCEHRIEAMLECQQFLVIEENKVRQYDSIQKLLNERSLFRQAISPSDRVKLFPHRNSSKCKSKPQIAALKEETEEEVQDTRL

Row | SMILES | Ent. B Max Activity (%) (Table 10) | EC50 [1] [nM] | Ent. B Max Activity (%) (Table 9) | EC50 (Table 9, read-out: Ent. B EC50) [nM] | also measured
1 | Cc1cccc(C)c1-c1cc2nc(n1)NS(=O)(=O)c1cccc(c1)C(=O)N([C@H]1C[C@@H](N(CCO)CCO)C1)[C@H](CC(C)(C)C)CO2 (stereo in doubt) [Compound 252] | + (+ is <300%) | < 1000 | – | – | –
2 | COC(=O)N1CCC2(CC1)CC(N1C(=O)c3cccc(c3)S(=O)(=O)Nc3nc(cc(-c4c(C)cccc4C)n3)OC[C@H]1CC(C)(C)C(F)(F)F)C2 [Compound 191, Methyl 2-[(11R)-6-(2,6-dimethylphenyl)-2,2,13-trioxo-11-(3,3,3-trifluoro-2,2-dimethylpropyl)-9-oxa-2λ^6-thia-3,5,12,19-tetraazatricyclo[12.3.1.14,8]nonadeca-1(17),4(19),5,7,14(18),15-hexaen-12-yl]-7-azaspiro[3.5]nonane-7-carboxylate] | – | – | +++ (+++ is >60%) | < 1000 | –
3 | Cc1cccc(C)c1-c1cc2nc(n1)NS(=O)(=O)c1cccc(c1)C(=O)N([C@H]1CC3(C[C@H](N(C)C(=O)OC(C)C)C3)C1)[C@H](CC(C)C)CO2 (some centres unmarked) [Compound 283] | – | – | ++ (++ is 30-60%) | < 1000 | –
4 | Cc1cccc(C)c1-c1cc2nc(n1)NS(=O)(=O)c1cccc(c1)C(=O)N(C1CC3(CCN(CCOC(C)C)CC3)C1)[C@H](CC1(C(F)(F)F)CC1)CO2 [Compound 129, (11R)-6-(2,6-dimethylphenyl)-12-[7-(2-isopropoxyethyl)-7-azaspiro[3.5]nonan-2-yl]-2,2-dioxo-11-[[1-(trifluoromethyl)cyclopropyl]methyl]-9-oxa-2λ^6-thia-3,5,12,19-tetrazatricyclo[12.3.1.14,8]nonadeca-1(18),4(19),5,7,14,16-hexaen-13-one] | – | – | – | – | Ent. B Max Activity (%): +++ (+++ is >60%); EC50 (read-out: Ent. B EC50): < 1000 nM
5 | CCN(C(=O)OC)C1CC(N2C(=O)c3cccc(c3)S(=O)(=O)Nc3nc(cc(-c4c(C)cccc4C)n3)OC[C@H]2CC(C)(C)C)C1 (single isomer, unassigned) [Compound 238] | ++ (++ is 30-60%) | < 1000 | – | – | –
6 | COC(=O)NC1(C)CC(N2C(=O)c3cccc(c3)S(=O)(=O)Nc3nc(cc(-c4c(C)cccc4C)n3)OC[C@H]2CC(C)(C)C)C1 (single isomer, unassigned) [Compound 171] | +++ (+++ is >60%) | < 1000 | – | – | –
7 | COC(=O)NC1(C)CC2(CC(N3C(=O)c4cccc(c4)S(=O)(=O)Nc4nc(cc(-c5c(C)cccc5C)n4)OC[C@H]3CC(C)(C)C)C2)C1 (single isomer, unassigned) [Compound 96] | ++ (++ is 30-60%) | < 1000 | – | – | –
8 | COCCN1CCC(n2cc(N3C(=O)c4cccc(c4)S(=O)(=O)Nc4nc(cc(-c5c(C)cccc5C)n4)OC[C@H]3CC(C)(C)C)cn2)CC1 [Compound 224] | + (+ is <300%) | – | – | – | –
9 | Cc1cccc(C)c1-c1cc2nc(n1)NS(=O)(=O)c1cccc(c1)C(=O)N([C@H]1C[C@@H](CC(C)(C)O)C1)[C@H](CC(C)(C)C)CO2 (single isomer, unassigned) [Compound 153] | +++ (+++ is >60%) | < 1000 | – | – | –
10 | Cc1cccc(C)c1-c1cc2nc(n1)NS(=O)(=O)c1cccc(c1)C(=O)N(C1CC3(CCN(C(=O)N(C)C)CC3)C1)[C@H](CC(C)C)CO2 [Compound 26, 2-[(11R)-6-(2,6-Dimethylphenyl)-11-isobutyl-2,2,13-trioxo-9-oxa-2λ^6-thia-3,5,12,19-tetrazatricyclo[12.3.1.14,8]nonadeca-1(18),4(19),5,7,14,16-hexaen-12-yl]-N,N-dimethyl-7-azaspiro[3.5]nonane-7-carboxamide] | – | – | +++ (+++ is >60%) | < 1000 | –
11 | Cc1cccc(C)c1-c1cc2nc(n1)NS(=O)(=O)c1cccc(c1)C(=O)N(C1CC3(C1)CN(C(C)C)C3)[C@H](CC1(C(F)(F)F)CC1)CO2 [Compound 132, (11R)-6-(2,6-Dimethylphenyl)-12-(2-isopropyl-2-azaspiro[3.3]heptan-6-yl)-2,2-dioxo-11-[[1-(trifluoromethyl)cyclopropyl]methyl]-9-oxa-2λ^6-thia-3,5,12,19-tetrazatricyclo[12.3.1.14,8]nonadeca-1(18),4(19),5,7,14,16-hexaen-13-one] | – | – | +++ (+++ is >60%) | < 1000 | –
12 | CCOCCN1CCC2(CC1)CC(N1C(=O)c3cccc(c3)S(=O)(=O)Nc3nc(cc(-c4c(C)cccc4C)n3)OC[C@H]1CC(C)C)C2 [Compound 310] | – | – | – | – | Ent. B Max Activity (%): +++ (+++ is >60%); EC50 (read-out: Ent. B EC50): < 1000 nM
13 | Cc1cccc(C)c1-c1cc2nc(n1)NS(=O)(=O)c1cccc(c1)C(=O)N([C@H]1C[C@@H](OC(=O)Nc3ccccc3)C1)[C@H](CC(C)C)CO2 (stereo in doubt) [Compound 360] | +++ (+++ is >60%) | < 1000 | – | – | –
14 | CCN1CCC2(CC1)CC(N1C(=O)c3cccc(c3)S(=O)(=O)Nc3nc(cc(-c4c(C)cccc4C)n3)OC[C@H]1CC(C)C)C2 [Compound 258] | – | – | +++ (+++ is >60%) | < 1000 | –
15 | [H][C@]1(N2C(=O)c3cccc(c3)S(=O)(=O)Nc3nc(cc(-c4c(C)cccc4C)n3)OC[C@H]2CC2(C(F)(F)F)CC2)C[C@]2(C[C@@H](CO)C2)C1 (single isomer, unassigned) [Compound 134] | – | – | – | – | Ent. B Max Activity (%): +++ (+++ is >60%); EC50 (read-out: Ent. B EC50): < 1000 nM
16 | COC(=O)NC1(C)CC2(CC(N3C(=O)c4cccc(c4)S(=O)(=O)Nc4nc(cc(-c5c(C)cccc5C)n4)OC[C@H]3CC(C)(C)C)C2)C1 (single isomer, unassigned) [Compound 95] | +++ (+++ is >60%) | < 1000 | – | – | –
17 | Cc1cccc(C)c1-c1cc2nc(n1)NS(=O)(=O)c1cccc(c1)C(=O)N(C1CC3(COC(=O)N3)C1)[C@H](CC(C)C)CO2 (some centres unmarked) [Compound 256] | ++ (++ is 30-60%) | < 1000 | – | – | –
18 | Cc1cccc(C)c1-c1cc2nc(n1)NS(=O)(=O)c1cccc(c1)C(=O)N([C@H]1C[C@@H](N3CCC(OCC4CC4)CC3)C1)[C@H](CC(C)C)CO2 [Compound 386] | – | – | +++ (+++ is >60%) | < 1000 | –
19 | COCCN[C@H]1C[C@]2(C1)C[C@H](N1C(=O)c3cccc(c3)S(=O)(=O)Nc3nc(cc(-c4c(C)cccc4C)n3)OC[C@H]1CC1(C(F)(F)F)CC1)C2 (some centres unmarked) [Compound 270] | – | – | +++ (+++ is >60%) | < 1000 | –
20 | COC(=O)N[C@H]1C[C@@]2(C1)C[C@H](N1C(=O)c3cccc(c3)S(=O)(=O)Nc3nc(cc(-c4c(C)cccc4C)n3)OC[C@H]1CC1(C(F)(F)F)CC1)C2 (some centres unmarked) [Compound 273] | – | – | +++ (+++ is >60%) | < 1000 | –
21 | Cc1cccc(C)c1-c1cc2nc(n1)NS(=O)(=O)c1cccc(c1)C(=O)N([C@H]1C[C@](C)(NC(=O)OC(C)C)C1)[C@H](CC(C)(C)C)CO2 (stereo in doubt) [Compound 245] | +++ (+++ is >60%) | < 1000 | – | – | –
22 | Cc1cccc(C)c1-c1cc2nc(n1)NS(=O)(=O)c1cccc(n1)C(=O)N(C1CC3(CCN(C)CC3)C1)[C@H](CC(C)C)CO2 [Compound 390] | – | – | – | – | Ent. B Max Activity (%): +++ (+++ is >60%); EC50 (read-out: Ent. B EC50): < 1000 nM
23 | Cc1cccc(C)c1-c1cc2nc(n1)NS(=O)(=O)c1cccc(c1)C(=O)N([C@H]1C[C@@H](CNC(=O)OC(C)C)C1)[C@H](CC(C)C)CO2 (single isomer, unassigned) [Compound 108] | – | – | +++ (+++ is >60%) | < 1000 | –
24 | CO[C@@H](C)C(=O)N1CCC2(CC1)CC(N1C(=O)c3cccc(c3)S(=O)(=O)Nc3nc(cc(-c4c(C)cccc4C)n3)OC[C@H]1CC(C)C)C2 [Compound 454] | – | – | +++ (+++ is >60%) | < 1000 | –
25 | CCC(=O)NC1(C)CC(N2C(=O)c3cccc(c3)S(=O)(=O)Nc3nc(cc(-c4c(C)cccc4C)n3)OCC2CC(C)(C)C)C1 (centres unmarked) [Compound 243] | +++ (+++ is >60%) | < 1000 | – | – | –
26 | CO[C@H]1C[C@@H](N2C(=O)c3cccc(c3)S(=O)(=O)Nc3nc(cc(-c4c(C)cccc4C)n3)OC[C@H]2CC(C)(C)C)C1 (single isomer, unassigned) [Compound 151] | – | – | – | – | Ent. B Max Activity (%): +++ (+++ is >60%); EC50 (read-out: Ent. B EC50): < 1000 nM
27 | [H][C@]1(N2C(=O)c3cccc(c3)S(=O)(=O)Nc3nc(cc(-c4c(C)cccc4C)n3)OC[C@H]2CC(C)C)C[C@@]2(C[C@H](N(C)CCOC)C2)C1 (some centres unmarked) [Compound 285] | – | – | +++ (+++ is >60%) | < 1000 | –
28 | Cc1cccc(C)c1-c1cc2nc(n1)NS(=O)(=O)c1cccc(c1)C(=O)N([C@H]1C[C@@H](OC(C)C)C1)[C@H](CC1(C(F)(F)F)CC1)CO2 (single isomer, unassigned) [Compound 130] | – | – | +++ (+++ is >60%) | < 1000 | –
29 | Cc1cccc(C)c1-c1cc2nc(n1)NS(=O)(=O)c1cccc(c1)C(=O)N(C1CC(N(C)C)C1)[C@H](CC(C)(C)C)CO2 (some centres unmarked) [Compound 253] | ++ (++ is 30-60%) | < 1000 | – | – | –
30 | Cc1cccc(C)c1-c1cc2nc(n1)NS(=O)(=O)c1cccc(n1)C(=O)N(C1CC3(CCNCC3)C1)[C@H](CC(C)C)CO2 [Compound 392] | – | – | – | – | Ent. B Max Activity (%): +++ (+++ is >60%); EC50 (read-out: Ent. B EC50): 1000 to 3000 nM
